This note sets out measurements from US20090082470A1, “STAT3 INHIBITING COMPOSITIONS AND METHODS” (priority 2007, published 2009).

Test [1] has as its system DU 145 prostate cancer cell line. Briefly: Anti-proliferative activity, MTS assay, DU 145. The test is classed as cell-based. Conditions: Homo sapiens, MTS assay, 2,000 cells/well, means of 2 experiments in triplicate. From the text: (§1) MCF-7 breast cancer cells, a cell line with no constitutive activation of STAT3, were used as negative control. […] In addition, the anti-proliferative activities are directly proportional to the level of constitutively active STAT3 expression (Table 1).
A general note: Tetrazolium dyes change colour on reduction, which living cells bring about.

Test [2] has as its system PC3 prostate cancer cell line. Briefly: Anti-proliferative activity, MTS assay, PC3. Conditions: MTS assay, 2,000 cells/well, means of 2 experiments in triplicate. In kind it is cell-based.
Excerpt: as §1

The subject of test [3] is LNCaP prostate cancer cell line. In words: Anti-proliferative activity, MTS assay, LNCaP. The test is classed as cell-based. The following applies: Homo sapiens, MTS assay, 2,000 cells/well, means of 2 experiments in triplicate.
Excerpt: as §1

The test system of test [4] is MCF-7 breast cancer cell line. Briefly: Anti-proliferative activity, MTS assay, MCF-7. In kind it is cell-based.
Excerpt: as §1

Test [5] has as its system STAT3. Briefly: STAT3-dependent luciferase reporter (pLucTKS3) in Caov-3 cells. The following applies: 20 μM, 48h. The test is classed as cell-based. An excerpt: (§2) To screen the potential inhibitors that inhibit STAT3 's biological activity, we established Caov-3 cancer cell line that constitutively expresses active STAT3 with a stably integrated STAT3-dependent luciferase reporter construct, pLucTKS3. This construct contains multimerized STAT3 binding sites and its activation specifically depends on STAT3. We examined the effect of eight theoretical STAT3 inhibitors to inhibit STAT3-mediated production of luciferase.
(§3) According to embodiments illustrated by FIG. 3B, the clones stably transfected with pLucTKS3 STAT3-dependent luciferase reporter or SV40 luciferase reporter were treated with 20 μM of the STAT3 inhibitor for 48h and luciferase activity was measured.

Another test relates to SV40 promoter. Briefly: SV40 luciferase reporter (STAT3-independent). The test is classed as cell-based. Conditions: 20 μM, 48h.
Excerpt: as §2, §3

The next test relates to cyclin D1 and Bcl-XL. Briefly: Immunoblot of STAT3-regulated genes. Conditions: 20 μM and 30 μM. The test is classed as cell-based. In general terms: In western blotting, separated proteins are transferred to a membrane and probed.
Test [6] deals with STAT3. Briefly: Electrophoretic mobility shift assay, STAT3 DNA binding. In kind it is biochemical. Conditions: 30 μM, 30 min, MDA-MB-435s cell nuclear extract. From the text:
(§4) The reaction mixtures were resolved on 8% polyacylamide gel and visualized with autoradiography.
(In general: Mobility shift assays separate free from complexed probe on a gel.)

For the next test, the target named is T1, STAT1 (Homo sapiens, UniProt P42224).
T1 construct: endogenous in cells; host or cells: MDA-MB-435s nuclear extract
T1 sequence (P42224 1-750): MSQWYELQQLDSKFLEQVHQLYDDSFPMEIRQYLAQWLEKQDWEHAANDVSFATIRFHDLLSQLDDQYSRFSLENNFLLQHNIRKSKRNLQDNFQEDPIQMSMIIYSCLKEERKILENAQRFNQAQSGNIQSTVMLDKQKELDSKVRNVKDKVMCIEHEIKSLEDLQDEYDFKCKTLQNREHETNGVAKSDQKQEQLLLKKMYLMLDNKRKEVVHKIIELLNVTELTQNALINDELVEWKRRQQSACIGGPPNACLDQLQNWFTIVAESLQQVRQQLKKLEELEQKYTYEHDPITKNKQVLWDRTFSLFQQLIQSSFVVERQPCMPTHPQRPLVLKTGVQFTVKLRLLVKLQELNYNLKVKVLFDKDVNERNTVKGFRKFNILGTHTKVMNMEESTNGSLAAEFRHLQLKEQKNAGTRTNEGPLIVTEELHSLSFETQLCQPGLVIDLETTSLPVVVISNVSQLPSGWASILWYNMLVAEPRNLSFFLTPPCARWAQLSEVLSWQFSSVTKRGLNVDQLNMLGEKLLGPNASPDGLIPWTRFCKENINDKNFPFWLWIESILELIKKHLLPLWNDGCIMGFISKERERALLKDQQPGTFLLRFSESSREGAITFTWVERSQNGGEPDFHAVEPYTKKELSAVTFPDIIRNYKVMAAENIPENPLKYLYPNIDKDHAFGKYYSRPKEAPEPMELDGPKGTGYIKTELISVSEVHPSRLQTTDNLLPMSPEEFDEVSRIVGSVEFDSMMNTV
Briefly: Electrophoretic mobility shift assay, STAT1 DNA binding. In kind it is biochemical. The following applies: 30 μM, MDA-MB-435s cell nuclear extract.
Excerpt: as §4

Another test deals with STAT5. In words: Electrophoretic mobility shift assay, STAT5 DNA binding. In kind it is biochemical. The following applies: 30 μM, MDA-MB-435s cell nuclear extract.
Excerpt: as §4

Test [7] has as its system STAT3. Briefly: STAT3 dimerization, co-immunoprecipitation of STAT3-FLAG and STAT3-HA. The following applies: MDA-MB-435s cells, 20 μM, 24h. The test is classed as cell-based. The protocol: MDA-MB-435s cells were co-transfected with pCMV-STAT3-FLAG and pCMV-STAT3-HA plasmid constructs and immunoblot analyses were performed with anti-FLAG, anti-HA, and anti-STAT3, the results of which are shown in FIG. 5A. The cell lysates were then subjected to immunoprecipitation with an anti-FLAG or anti-HA antibody and immunoblot analyses were performed with anti-HA or anti-FLAG, respectively, the results of which are shown in FIG. 5B.
According to embodiments of experimental results shown in FIG. 5A, MDA-MB-435s cells were transfected with pCMV-STAT3-Flag and pCMV-STAT3-HA plasmid and the cell lysate was immunoblotted with anti-Flag, anti-HA, or anti-STAT3. According to embodiments shown in FIG. 5B, MDA-MB-435s cells were co-transfected with pCMV-STAT3-Flag and pCMV-STAT3-HA plasmids and were exposed to 20 μM of inhibitor for 24h, then cell lysate was immunoprecipitated with anti-HA or anti-Flag antibody, respectively and immunoblotted with HA, Flag, or STAT3 antibody. As shown in Lane 1 of FIG. 5B, no transfection was performed. In lane 2, untreated cells were transfected with pCMV-STAT3-Flag and pCMV-STAT3-HA plasmids.

Test [8] deals with MDA-MB-468, MDA-MB-435s, and MDA-MB-231 cell lines. In words: Apoptosis by FACS, cell lines with constitutively active STAT3. The test is classed as cell-based. The following applies: 48 h. The method, then: (§5) According to embodiments of experimental data shown in FIG. 6A, the phosphorylation of STAT3 (Tyr705) in different cell lines: lane 1 with HSF, lane 2 with MCF-7, land 3 with MDA-MB-453, lane 4 with MDA-MB-231, lane 5 with MDA-MB-435s, and lane 6 with MDA-MB-468. According to embodiments shown in FIG. 6B, cell lines were treated with STAT3 inhibitor at concentrations as indicated for 48 h, and apoptotic cells were detected with FACS.

The test system of test [9] is MCF-7 and MDA-MB-453 cancer cell lines and human skin fibroblasts (HSF). Briefly: Apoptosis by FACS, cells lacking constitutively active STAT3. The following applies: 48 h, lack constitutively active STAT3. The test is classed as cell-based. The protocol:
as §5

The next test concerns the target T2, JAK2 (Homo sapiens, UniProt O60674).
T2 construct: endogenous in cells
In words: Phosphorylation of JAK2. In kind it is cell-based.

The target in another test is T3, Src (Homo sapiens, UniProt P12931).
T3 construct: endogenous in cells
T3 sequence (P12931 whole entry): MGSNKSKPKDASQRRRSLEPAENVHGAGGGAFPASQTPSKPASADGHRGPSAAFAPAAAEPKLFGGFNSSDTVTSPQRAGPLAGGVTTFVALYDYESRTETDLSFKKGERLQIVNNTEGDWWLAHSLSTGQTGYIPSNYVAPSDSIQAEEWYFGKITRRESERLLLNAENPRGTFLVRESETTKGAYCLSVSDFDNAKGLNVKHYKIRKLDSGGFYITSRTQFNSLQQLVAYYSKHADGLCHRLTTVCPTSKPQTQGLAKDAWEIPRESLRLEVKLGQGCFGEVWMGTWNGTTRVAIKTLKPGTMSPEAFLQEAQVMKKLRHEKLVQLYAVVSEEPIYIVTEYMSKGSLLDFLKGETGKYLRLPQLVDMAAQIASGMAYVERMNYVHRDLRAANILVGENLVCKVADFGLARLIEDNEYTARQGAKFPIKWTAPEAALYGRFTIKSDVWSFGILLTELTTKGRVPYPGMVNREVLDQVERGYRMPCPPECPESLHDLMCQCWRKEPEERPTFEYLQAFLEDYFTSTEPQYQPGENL
Briefly: Phosphorylation of Src. The test is classed as cell-based.

A further test deals with AKT. Briefly: Phosphorylation of AKT. In kind it is cell-based.
The subject of the next test is ERK½. In words: Phosphorylation of ERK½. The test is classed as cell-based.

T2 sequence (O60674 whole entry): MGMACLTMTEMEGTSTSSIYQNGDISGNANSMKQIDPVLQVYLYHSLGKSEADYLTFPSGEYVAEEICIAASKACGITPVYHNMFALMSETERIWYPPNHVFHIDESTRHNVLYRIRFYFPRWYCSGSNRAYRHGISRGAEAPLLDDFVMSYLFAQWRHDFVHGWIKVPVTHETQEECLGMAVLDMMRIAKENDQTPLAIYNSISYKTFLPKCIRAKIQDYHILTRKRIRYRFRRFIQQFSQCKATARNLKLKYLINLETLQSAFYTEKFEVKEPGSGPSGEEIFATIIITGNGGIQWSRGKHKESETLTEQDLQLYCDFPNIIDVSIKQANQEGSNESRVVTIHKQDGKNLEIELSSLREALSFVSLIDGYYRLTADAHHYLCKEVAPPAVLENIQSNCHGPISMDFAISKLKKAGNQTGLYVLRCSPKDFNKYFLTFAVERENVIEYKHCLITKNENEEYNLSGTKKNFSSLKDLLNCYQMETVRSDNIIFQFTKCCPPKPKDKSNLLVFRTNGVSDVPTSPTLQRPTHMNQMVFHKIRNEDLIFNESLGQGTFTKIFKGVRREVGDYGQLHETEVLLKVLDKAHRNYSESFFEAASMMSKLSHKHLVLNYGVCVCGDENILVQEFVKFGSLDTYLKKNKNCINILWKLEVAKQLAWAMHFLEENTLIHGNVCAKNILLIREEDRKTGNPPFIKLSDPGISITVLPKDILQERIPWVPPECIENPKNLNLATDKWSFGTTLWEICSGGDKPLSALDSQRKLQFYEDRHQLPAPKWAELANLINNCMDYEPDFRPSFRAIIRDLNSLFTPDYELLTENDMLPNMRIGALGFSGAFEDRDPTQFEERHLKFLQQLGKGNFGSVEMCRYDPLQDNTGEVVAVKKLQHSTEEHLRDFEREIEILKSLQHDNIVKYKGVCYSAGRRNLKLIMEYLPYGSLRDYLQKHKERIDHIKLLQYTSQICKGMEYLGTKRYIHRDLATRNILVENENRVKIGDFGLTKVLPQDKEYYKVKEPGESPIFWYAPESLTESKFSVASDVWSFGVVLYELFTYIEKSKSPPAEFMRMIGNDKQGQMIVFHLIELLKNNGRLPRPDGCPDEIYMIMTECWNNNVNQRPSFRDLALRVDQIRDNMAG

The IC50 is the concentration that inhibits the measured activity by half. High values mean lower potency, low ones higher potency. In the case of `C[C@@H]1CC(=O)c2c(ccc3c2C(=O)c2cccc(O)c2C3=O)C1` [STA-21, deoxytetrangomycin], the concentration for half-maximal inhibition (IC50) in test [1] was 12.2 µM; in [2] it was 18.7 µM; in test [3] it was 30.1 µM; in test [4] (Homo sapiens, MCF7, MTS assay, 2,000 cells/well, no constitutive STAT3 activation), over 100 µM. In addition, the “anti-proliferative activity in MCF-7 cells (in words)” value in test [4] (cells with no constitutive STAT3 activation) is recorded as “did not show any antiproliferative activity”. Moreover, the “reduction in luciferase activity, pLucTKS3 transfected cells” value in the test on STAT3 [5] is reported as about 6 fold. For the same compound, the “luciferase activity under control of the SV40 promoter” value in the test on SV40 promoter is reported as “no significant difference”. The “expression of STAT3-regulated genes cyclin D1 and Bcl-XL” value in the test on cyclin D1 and Bcl-XL is listed as “inhibits the expression”. For the same compound, the “STAT3 DNA binding activity” value with STAT3 [6] is “specifically blocked STAT3 DNA binding”. Further, the “STAT1 DNA binding” value at STAT1 is given as “did not inhibit”. Further, in the test with STAT5, the “STAT5 DNA binding” value is on record as “did not inhibit”. The “ability of STAT3-FLAG and STAT3-HA to dimerize” value with STAT3 [7] is given as “significantly reduced”. Besides, the “increase in percentage of apoptotic cells” value in [8] was 5-30 fold; in [9], 0.5-1.2 fold. At JAK2, the “phosphorylation of JAK2” value is reported as “did not inhibit”. For the same compound, on Src, the “phosphorylation of Src” value is “did not inhibit”. Moreover, the “phosphorylation of AKT” value in the test on AKT is “did not inhibit”. Besides, the “phosphorylation of ERK½” value with ERK½ was “did not inhibit”.
